Results from ChEMBL document CHEMBL4419163, “Assays for identifying compounds that modulate bitter taste” (2014).

Columns and labels:
Assay type in all cases: functional, cell-based
[1] = target: T1, Taste receptor type 2 member 10 (Homo sapiens) (UniProt Q9NYW0); experiment: Agonist activity at human TAS2R10 expressed in HEK293T cells co-expressing Galpha15 assessed as increase in intracellular calcium level at 20 mM by Calcium-3 dye based fluorescence assay relative to control
T1 sequence (whole entry): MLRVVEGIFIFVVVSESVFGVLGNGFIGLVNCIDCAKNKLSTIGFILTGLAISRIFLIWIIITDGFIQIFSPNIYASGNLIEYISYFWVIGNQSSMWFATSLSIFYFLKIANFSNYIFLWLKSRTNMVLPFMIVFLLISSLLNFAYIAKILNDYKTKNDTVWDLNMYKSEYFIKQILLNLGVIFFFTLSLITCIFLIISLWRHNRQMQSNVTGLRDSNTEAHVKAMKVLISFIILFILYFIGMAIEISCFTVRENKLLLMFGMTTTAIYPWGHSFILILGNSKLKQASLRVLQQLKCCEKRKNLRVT

[2] = target: T2, Taste receptor type 2 member 9 (Homo sapiens) (UniProt Q9NYW1); experiment: Agonist activity at human TAS2R9 expressed in HEK293T cells co-expressing Galpha15 assessed as increase in intracellular calcium level at 20 mM by Calcium-3 dye based fluorescence assay relative to control
T2 sequence (whole entry): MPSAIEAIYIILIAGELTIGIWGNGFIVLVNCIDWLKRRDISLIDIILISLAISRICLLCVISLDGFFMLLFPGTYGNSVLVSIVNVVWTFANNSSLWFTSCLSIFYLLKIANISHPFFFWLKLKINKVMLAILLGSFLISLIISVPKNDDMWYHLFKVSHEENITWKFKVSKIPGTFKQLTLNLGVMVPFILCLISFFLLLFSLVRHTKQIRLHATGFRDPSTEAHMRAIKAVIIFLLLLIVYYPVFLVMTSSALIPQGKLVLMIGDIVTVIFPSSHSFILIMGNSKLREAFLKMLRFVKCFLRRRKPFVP

[3] = target: T3, Taste receptor type 2 member 45 (Homo sapiens) (UniProt P59539); experiment: Agonist activity at human TAS2R45 expressed in HEK293T cells co-expressing Galpha15 assessed as increase in intracellular calcium level at 20 mM by Calcium-3 dye based fluorescence assay relative to control
T3 sequence (whole entry): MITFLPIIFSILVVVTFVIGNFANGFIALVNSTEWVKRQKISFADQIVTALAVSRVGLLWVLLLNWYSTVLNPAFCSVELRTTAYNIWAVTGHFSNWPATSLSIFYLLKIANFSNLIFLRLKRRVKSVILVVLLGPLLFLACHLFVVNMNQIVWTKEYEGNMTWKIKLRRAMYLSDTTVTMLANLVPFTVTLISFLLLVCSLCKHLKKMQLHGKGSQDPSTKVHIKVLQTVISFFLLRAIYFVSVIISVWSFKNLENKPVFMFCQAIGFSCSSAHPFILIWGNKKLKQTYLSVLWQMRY

[4] = target: Taste receptor type 2 member 40 (Homo sapiens) (UniProt P59535); experiment: Agonist activity at human TAS2R40 expressed in HEK293T cells co-expressing Galpha15 assessed as increase in intracellular calcium level at 20 mM by Calcium-3 dye based fluorescence assay relative to control
[5] = target: T4, Taste receptor type 2 member 39 (Homo sapiens) (UniProt P59534); experiment: Agonist activity at human TAS2R39 expressed in HEK293T cells co-expressing Galpha15 assessed as increase in intracellular calcium level at 20 mM by Calcium-3 dye based fluorescence assay relative to control
T4 sequence (whole entry): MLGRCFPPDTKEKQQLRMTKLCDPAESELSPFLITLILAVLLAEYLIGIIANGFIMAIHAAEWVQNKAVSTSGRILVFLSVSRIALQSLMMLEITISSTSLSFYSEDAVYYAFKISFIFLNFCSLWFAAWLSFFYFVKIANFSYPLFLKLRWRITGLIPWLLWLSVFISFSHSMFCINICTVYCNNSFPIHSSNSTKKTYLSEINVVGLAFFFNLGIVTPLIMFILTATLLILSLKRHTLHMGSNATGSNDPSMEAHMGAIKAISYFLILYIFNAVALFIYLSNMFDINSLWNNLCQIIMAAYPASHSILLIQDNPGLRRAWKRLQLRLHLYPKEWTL

[6] = target: T5, Taste receptor type 2 member 50 (Homo sapiens) (UniProt P59544); experiment: Agonist activity at human TAS2R50 expressed in HEK293T cells co-expressing Galpha15 assessed as increase in intracellular calcium level at 20 mM by Calcium-3 dye based fluorescence assay relative to control
T5 sequence (whole entry): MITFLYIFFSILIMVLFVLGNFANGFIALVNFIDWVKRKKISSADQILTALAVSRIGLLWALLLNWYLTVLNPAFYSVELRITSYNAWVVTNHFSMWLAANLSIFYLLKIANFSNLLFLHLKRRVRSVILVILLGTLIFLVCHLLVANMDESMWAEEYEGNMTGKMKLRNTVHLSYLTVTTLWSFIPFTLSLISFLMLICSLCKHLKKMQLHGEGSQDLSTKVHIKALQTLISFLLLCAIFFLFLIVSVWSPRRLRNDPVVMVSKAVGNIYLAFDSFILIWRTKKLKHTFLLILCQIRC

[7] = target: T6, Taste receptor type 2 member 46 (Homo sapiens) (UniProt P59540); experiment: Agonist activity at human TAS2R46 expressed in HEK293T cells co-expressing Galpha15 assessed as increase in intracellular calcium level at 20 mM by Calcium-3 dye based fluorescence assay relative to control
T6 sequence (whole entry): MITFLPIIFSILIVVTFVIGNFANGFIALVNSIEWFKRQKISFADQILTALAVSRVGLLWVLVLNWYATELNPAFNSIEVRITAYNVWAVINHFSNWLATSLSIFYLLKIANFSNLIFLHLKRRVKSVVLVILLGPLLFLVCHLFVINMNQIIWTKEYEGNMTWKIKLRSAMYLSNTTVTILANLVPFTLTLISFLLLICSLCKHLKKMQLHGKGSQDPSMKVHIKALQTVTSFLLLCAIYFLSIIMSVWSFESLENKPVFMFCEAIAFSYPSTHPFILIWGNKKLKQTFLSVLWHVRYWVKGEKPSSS

[8] = target: T7, Taste receptor type 2 member 1 (Homo sapiens) (UniProt Q9NYW7); experiment: Agonist activity at human TAS2R1 expressed in HEK293T cells co-expressing Galpha15 assessed as increase in intracellular calcium level at 20 mM by Calcium-3 dye based fluorescence assay relative to control
T7 sequence (whole entry): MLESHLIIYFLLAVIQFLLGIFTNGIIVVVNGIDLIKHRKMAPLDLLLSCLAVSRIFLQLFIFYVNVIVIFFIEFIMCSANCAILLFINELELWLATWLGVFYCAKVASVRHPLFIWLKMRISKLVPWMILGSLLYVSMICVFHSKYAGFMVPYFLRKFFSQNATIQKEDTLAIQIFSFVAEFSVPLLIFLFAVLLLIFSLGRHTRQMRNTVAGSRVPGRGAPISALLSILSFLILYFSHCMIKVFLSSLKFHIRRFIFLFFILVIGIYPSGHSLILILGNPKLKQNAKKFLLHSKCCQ

Sequence of Taste receptor type 2 member 40 (Homo sapiens) (P59535 whole entry): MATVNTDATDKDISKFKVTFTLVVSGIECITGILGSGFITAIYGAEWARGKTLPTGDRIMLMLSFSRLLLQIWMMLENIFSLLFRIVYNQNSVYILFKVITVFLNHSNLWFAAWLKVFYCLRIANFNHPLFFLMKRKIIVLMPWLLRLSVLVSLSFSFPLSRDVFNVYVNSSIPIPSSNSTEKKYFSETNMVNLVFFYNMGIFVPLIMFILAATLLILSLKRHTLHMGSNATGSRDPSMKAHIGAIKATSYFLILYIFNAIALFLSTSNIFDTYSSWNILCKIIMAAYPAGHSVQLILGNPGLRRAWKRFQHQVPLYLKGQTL

SMILES	Activity [1] [%]	Activity [2] [%]	Activity [3] [%]	Activity [4] [%]	Activity [5] [%]	Activity [6] [%]	Activity [7] [%]	Activity [8] [%]
CC1=CC(=O)NS(=O)(=O)O1	< 40	> 40	< 40	< 40	< 40	< 40	< 40	> 40
[Cl-].[K+] [POTASSIUM CHLORIDE]	< 40	> 40	< 40	< 40	< 40	< 40	< 40	< 40
CC(O)C(=O)[O-].[K+] (centres undefined)	< 40	> 40	< 40	< 40	< 40	< 40	> 40	< 40
